Laboratory results as given in ChEMBL document CHEMBL1142200, “Efficacy of delayed treatment with ST-246 given orally against systemic orthopoxvirus infections in mice” (Antimicrob Agents Chemother, 2007).
Calls of active or inactive are those of the source. The calls are words filed in the database; no cut-off is given here.

Key:
[1] = system: Mus musculus; assay: Effect on mortality of BALB/c mouse inoculated with Cowpox virus at 100 mg/kg after 72 hrs of viral infection, po once daily for 14 days relative to control; format: functional
[2] = system: Mus musculus; assay: Effect on mortality of BALB/c mouse inoculated with Cowpox virus BR at 100 mg/kg after 4 hrs of viral infection, po once daily for 7 days relative to control; format: functional
[3] = system: Mus musculus; assay: Effect on mortality of BALB/c mouse inoculated with Cowpox virus BR at 100 mg/kg after 4 hrs of viral infection, po once daily for 14 days relative to control; format: functional
[4] = system: Mus musculus; assay: Effect on mortality of BALB/c mouse inoculated with Cowpox virus BR at 100 mg/kg after 24 hrs of viral infection, po once daily for 14 days relative to control; format: functional
[5] = system: Mus musculus; assay: Effect on mortality of BALB/c mouse inoculated with Cowpox virus at 30 mg/kg after 4 hrs of viral infection, po once daily for 14 days relative to control; format: functional
[6] = system: Cowpox virus; assay: Reduction of Cowpox virus BR replication in BALB/c mouse lung at 50 mg/kg after 24 hrs of viral infection, po for 9 days; format: functional, organism-based; parameters: dose 50 mg/kg
[7] = system: Mus musculus; assay: Effect on mortality of A/NCr mouse inoculated with ectromelia virus at 100 mg/kg after 24 hrs of viral infection, po once daily for 10 days relative control; format: functional
[8] = Selectivity index, ratio of CC50 for HFF cells to EC50 for Vaccinia virus WR infected HFF cells; format: functional
[9] = Selectivity index, ratio of CC50 for HFF cells to EC50 for Cowpox virus Brighton infected HFF cells; format: functional
[10] = system: Mus musculus; assay: Effect on mortality of BALB/c mouse inoculated with Cowpox virus BR at 100 mg/kg after 4 hrs of viral infection, po once daily for 5 days relative to control; format: functional
[11] = system: Ectromelia virus; assay: Reduction of Ectromelia virus replication in BALB/c mouse nasal wash at 100 mg/kg, po once daily after 14 days; format: functional, organism-based; parameters: dose 100 mg/kg
[12] = system: Ectromelia virus; assay: Reduction of Ectromelia virus replication in BALB/c mouse liver at 100 mg/kg, po once daily after 6 days; format: functional, organism-based; parameters: dose 100 mg/kg
[13] = system: Ectromelia virus; assay: Reduction of Ectromelia virus replication in BALB/c mouse liver at 100 mg/kg, po once daily after 8 days; format: functional, organism-based; parameters: dose 100 mg/kg
[14] = system: Ectromelia virus; assay: Reduction of Ectromelia virus replication in BALB/c mouse lung at 100 mg/kg, po once daily after 6 days; format: functional, organism-based; parameters: dose 100 mg/kg
[15] = system: Ectromelia virus; assay: Reduction of Ectromelia virus replication in BALB/c mouse lung at 100 mg/kg, po once daily after 8 days; format: functional, organism-based; parameters: dose 100 mg/kg
[16] = system: Ectromelia virus; assay: Reduction of Ectromelia virus replication in BALB/c mouse spleen at 100 mg/kg, po once daily after 6 days; format: functional, organism-based; parameters: dose 100 mg/kg
[17] = system: Ectromelia virus; assay: Reduction of Ectromelia virus replication in BALB/c mouse esophagus at 100 mg/kg, po once daily after 4 days; format: functional, organism-based; parameters: dose 100 mg/kg
[18] = system: Ectromelia virus; assay: Reduction of Ectromelia virus replication in BALB/c mouse esophagus at 100 mg/kg, po once daily after 6 days; format: functional, organism-based; parameters: dose 100 mg/kg
[19] = system: Ectromelia virus; assay: Reduction of Ectromelia virus replication in BALB/c mouse esophagus at 100 mg/kg, po once daily after 8 days; format: functional, organism-based; parameters: dose 100 mg/kg
[20] = system: Ectromelia virus; assay: Reduction of Ectromelia virus replication in BALB/c mouse trachea at 100 mg/kg, po once daily after 4 days; format: functional, organism-based; parameters: dose 100 mg/kg
[21] = system: Ectromelia virus; assay: Reduction of Ectromelia virus replication in BALB/c mouse trachea at 100 mg/kg, po once daily after 6 days; format: functional, organism-based; parameters: dose 100 mg/kg
[22] = system: Ectromelia virus; assay: Reduction of Ectromelia virus replication in BALB/c mouse trachea at 100 mg/kg, po once daily after 8 days; format: functional, organism-based; parameters: dose 100 mg/kg
[23] = system: Cowpox virus; assay: Reduction of Cowpox virus BR replication in BALB/c mouse liver at 50 mg/kg after 24 hrs of viral infection, po for 9 days; format: functional, organism-based; parameters: dose 50 mg/kg
[24] = system: Cowpox virus; assay: Reduction of Cowpox virus BR replication in BALB/c mouse kidney at 50 mg/kg after 24 hrs of viral infection, po for 9 days; format: functional, organism-based; parameters: dose 50 mg/kg
[25] = system: Vaccinia virus; assay: Reduction of Vaccinia virus WR replication in BALB/c mouse spleen at 50 mg/kg after 24 hrs of viral infection, po for 9 days; format: functional, organism-based; parameters: dose 50 mg/kg; settings: Orthopoxvirus vaccinia
[26] = system: Vaccinia virus; assay: Reduction of Vaccinia virus WR replication in BALB/c mouse kidney at 50 mg/kg after 24 hrs of viral infection, po for 9 days; format: functional, organism-based; parameters: dose 50 mg/kg; settings: Orthopoxvirus vaccinia
[27] = system: Mus musculus; assay: Effect on mortality of BALB/c mouse inoculated with Cowpox virus at 30 mg/kg after 72 hrs of viral infection, po once daily for 14 days relative to control; format: functional
[28] = system: Mus musculus; assay: Effect on mortality of BALB/c mouse inoculated with Cowpox virus at 10 mg/kg after 72 hrs of viral infection, po once daily for 14 days relative to control; format: functional
[29] = system: Mus musculus; assay: Effect on mortality of A/NCr mouse inoculated with 41 PFU ectromelia virus at 100 mg/kg after 24 hrs of viral infection, po twice daily for 14 days; format: functional
[30] = system: Ectromelia virus; assay: Reduction of Ectromelia virus replication in BALB/c mouse liver at 100 mg/kg, po once daily after 14 days; format: functional, organism-based; parameters: dose 100 mg/kg
[31] = system: Ectromelia virus; assay: Reduction of Ectromelia virus replication in BALB/c mouse lung at 100 mg/kg, po once daily after 14 days; format: functional, organism-based; parameters: dose 100 mg/kg
[32] = system: Ectromelia virus; assay: Reduction of Ectromelia virus replication in BALB/c mouse spleen at 100 mg/kg, po once daily after 14 days; format: functional, organism-based; parameters: dose 100 mg/kg
[33] = system: Ectromelia virus; assay: Reduction of Ectromelia virus replication in BALB/c mouse esophagus at 100 mg/kg, po once daily after 14 days; format: functional, organism-based; parameters: dose 100 mg/kg

Compound `O=C(NN1C(=O)[C@@H]2[C@@H]3C=C[C@@H]([C@H]4C[C@@H]34)[C@@H]2C1=O)c1ccc(C(F)(F)F)cc1` [TECOVIRIMAT] has an Activity [1] of 40%, an Activity [2] of 7% and an Activity [3] of 7%. The Activity [4] was 0%, the Activity [5] was 50% and the Activity [6] was “Active”. The Activity [7] was 0%, the “Ratio CC50/EC50” value [8] was greater than 1000 and the “Ratio CC50/EC50” value [9] was greater than 208. The Activity [10] was 87%, the Activity [11] was “Active” and the Activity [12] was “Active”. For the same compound, the Activity [13] was “Active”, the Activity [14] was “Active” and the Activity [15] was “Active”. For the same compound, the Activity [16] was “Active”, the Activity [17] was “Active” and the Activity [18] was “Active”. The Activity [19] was “Active”, the Activity [20] was “Active” and the Activity [21] was “Active”. The Activity [22] was “Active”, the Activity [23] was “Active” and the Activity [24] was “Active”. The Activity [25] was “Active”, the Activity [26] was “Active” and the Activity [27] was 40%. The Activity [28] was 47%, the Activity [29] was 0% and the Activity [30] was “Active”. The Activity [31] was “Active”, the Activity [32] was “Active” and the Activity [33] was “Active”.
